“And” between values parts separate entries of the source, which are not always exact repeats. Identical values can stand only once. Toxic doses and inconclusive results are not listed.
Tested on: P388 leukemia ip, CD2F1 mice, survival T/C
Assay: NCI In Vivo Anticancer Drug Screen. Data for tumor model P388 Leukemia (intraperitoneal) in CD2F1 (CDF1) mice
Conditions: endpoint: median survival time, higher = longer survival
Procedure, shortened: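 Mice carrying the transplanted tumor received test compound or vehicle. Survival was recorded in each group, and the value is the treated-group measurement divided by that of the vehicle-treated control group.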

[1] = dose: 60.0 mg/kg/injection, schedule: Q01DX005 (ip), vehicle: saline with Tween-80
[2] = dose: 120.0 mg/kg/injection, schedule: Q01DX005 (ip), vehicle: saline with Tween-80
[3] = dose: 240.0 mg/kg/injection, schedule: Q01DX005 (ip), vehicle: saline with Tween-80
[4] = dose: 100.0 mg/kg/injection, schedule: Q04DX003 (ip), vehicle: saline with Tween-80
[5] = dose: 200.0 mg/kg/injection, schedule: Q04DX003 (ip), vehicle: saline with Tween-80
[6] = dose: 60.0 mg/kg/injection, schedule: Q01DX005 (ip), vehicle: saline
[7] = dose: 120.0 mg/kg/injection, schedule: Q01DX005 (ip), vehicle: saline
[8] = dose: 240.0 mg/kg/injection, schedule: Q01DX005 (ip), vehicle: saline

SMILES: Cc1ccc(-[n+]2c3cc(N)c(C)cc3nc3cc(C)c(Nc4ccccc4)cc32)cc1
- T/C (dose: 25.0 mg/kg/injection, schedule: Q01DX005 (ip), vehicle: saline + Tween-80 + alcohol): 109 % of control
- T/C (dose: 25.0 mg/kg/injection, schedule: Q01DX005 (ip), vehicle: saline with Tween-80): 101 % of control
- T/C (dose: 50.0 mg/kg/injection, schedule: Q01DX005 (ip), vehicle: saline + Tween-80 + alcohol): 116 % of control
- T/C (dose: 50.0 mg/kg/injection, schedule: Q01DX005 (ip), vehicle: saline with Tween-80): 119 % of control and 122 % of control
- T/C (dose: 100.0 mg/kg/injection, schedule: Q01DX005 (ip), vehicle: saline with Tween-80): 119 % of control and 122 % of control
- T/C (dose: 200.0 mg/kg/injection, schedule: Q01DX005 (ip), vehicle: saline with Tween-80): 119 % of control

SMILES: CC(=O)N(O)c1ccc(Cl)cc1
- T/C (dose: 25.0 mg/kg/injection, schedule: Q04DX002 (ip), vehicle: saline with Tween-80): 100 % of control
- T/C (dose: 50.0 mg/kg/injection, schedule: Q04DX002 (ip), vehicle: saline with Tween-80): 102 % of control
- T/C (dose: 100.0 mg/kg/injection, schedule: Q04DX002 (ip), vehicle: saline with Tween-80): 100 % of control
- T/C (dose: 200.0 mg/kg/injection, schedule: Q04DX002 (ip), vehicle: saline with Tween-80): 105 % of control

SMILES: C=CCN1CCCC1=O
- T/C (dose: 100.0 mg/kg/injection, schedule: Q04DX003 (ip), vehicle: saline): 100 % of control
- T/C (dose: 200.0 mg/kg/injection, schedule: Q04DX003 (ip), vehicle: saline): 100 % of control
- T/C (dose: 400.0 mg/kg/injection, schedule: Q04DX003 (ip), vehicle: saline): 95 % of control

SMILES: O=C1OC(Nc2ccccc2)C(Cl)=C1Cl (stereo unspecified)
- T/C [1]: 102 % of control
- T/C [2]: 104 % of control
- T/C [3]: 103 % of control

SMILES: COC(=O)CCN(CCC(=O)OC)Cc1ccccc1
- T/C (dose: 50.0 mg/kg/injection, schedule: Q04DX003 (ip), vehicle: saline with Tween-80): 101 % of control
- T/C [4]: 100 % of control
- T/C [5]: 100 % of control

SMILES: CCC1(O)CC(OC2CC(NC)C(OC3CC(O)C(OC4CC(O)C(O)C(C)O4)C(C)O3)C(C)O2)c2c(cc3c(c2O)C(=O)c2c(O)ccc(O)c2C3=O)C1C(=O)OC (stereo unspecified)
- T/C (dose: 3.13 mg/kg/injection, schedule: Q04DX003 (ip), vehicle: Klucel (hydroxypropylcellulose) (HPC)): 115 % of control
- T/C (dose: 6.25 mg/kg/injection, schedule: Q04DX003 (ip), vehicle: Klucel (hydroxypropylcellulose) (HPC)): 118 % of control
- T/C (dose: 12.5 mg/kg/injection, schedule: Q04DX003 (ip), vehicle: Klucel (hydroxypropylcellulose) (HPC)): 115 % of control

SMILES: CC(=O)Nc1ccn(C)c1[N+](=O)[O-]
- T/C (dose: 100.0 mg/kg/injection, schedule: Q01DX001 (ip), vehicle: Klucel (hydroxypropylcellulose) (HPC)): 100 % of control
- T/C (dose: 200.0 mg/kg/injection, schedule: Q01DX001 (ip), vehicle: Klucel (hydroxypropylcellulose) (HPC)): 97 % of control
- T/C (dose: 400.0 mg/kg/injection, schedule: Q01DX001 (ip), vehicle: Klucel (hydroxypropylcellulose) (HPC)): 102 % of control

SMILES: COC1CCCC2OC3(OC)C(OC)CCCC3OC12OC (stereo unspecified)
- T/C (dose: 50.0 mg/kg/injection, schedule: Q04DX003 (ip), vehicle: Klucel (hydroxypropylcellulose) (HPC)): 100 % of control
- T/C (dose: 100.0 mg/kg/injection, schedule: Q04DX003 (ip), vehicle: Klucel (hydroxypropylcellulose) (HPC)): 97 % of control
- T/C (dose: 200.0 mg/kg/injection, schedule: Q04DX003 (ip), vehicle: Klucel (hydroxypropylcellulose) (HPC)): 96 % of control

SMILES: CC[CH2][Sn]([Br])([Br])[CH2]CC
- T/C (dose: 3.12 mg/kg/injection, schedule: Q04DX003 (ip), vehicle: saline): 114 % of control
- T/C (dose: 6.25 mg/kg/injection, schedule: Q04DX003 (ip), vehicle: saline): 109 % of control

SMILES: O=C1C2C3C=CC(C2C(=O)N1CN1CCOCC1)C1C2C(=O)N(CN4CCOCC4)C(=O)C2C31 (stereo unspecified)
- T/C (dose: 25.0 mg/kg/injection, schedule: Q01DX009 (ip), vehicle: saline with Tween-80): 120 % of control

SMILES: CC(C)C1=CC2C3C(=O)NC(=O)C3C1C1C3C(=O)NC(=O)C3C21 (stereo unspecified)
- T/C [6]: 98 % of control
- T/C [7]: 100 % of control
- T/C [8]: 100 % of control

SMILES: ClCCN(CCCl)c1ccc(/C=N/Nc2ccc3ccccc3n2)cc1
- T/C [4]: 110 % of control
- T/C [5]: 109 % of control
- T/C (dose: 400.0 mg/kg/injection, schedule: Q04DX003 (ip), vehicle: saline with Tween-80): 106 % of control

SMILES: Cc1cccc(NC(=O)c2ccccc2)n1
- T/C (dose: 12.5 mg/kg/injection, schedule: Q04DX003 (ip), vehicle: saline): 104 % of control
- T/C (dose: 25.0 mg/kg/injection, schedule: Q04DX003 (ip), vehicle: saline): 100 % of control
- T/C (dose: 50.0 mg/kg/injection, schedule: Q04DX003 (ip), vehicle: saline): 90 % of control

SMILES: COc1cc(O)c2c(O)c3c(c4c2c1[C@]1(C4)C(C)=CCCC1(C)C)[C@H](O)[C@@]1(O)CC(=O)C(C(N)=O)=C(O)[C@@]1(O)C3=O
- T/C (dose: 6.25 mg/kg/injection, schedule: Q04DX003 (ip), vehicle: saline with Tween-80): 100 % of control
- T/C (dose: 12.0 mg/kg/injection, schedule: Q01DX009 (ip), vehicle: saline with Tween-80): 112 % of control
- T/C (dose: 12.5 mg/kg/injection, schedule: Q04DX003 (ip), vehicle: saline with Tween-80): 100 % of control
- T/C (dose: 25.0 mg/kg/injection, schedule: Q01DX009 (ip), vehicle: Klucel (hydroxypropylcellulose) (HPC)): 120 % of control and 121 % of control
- T/C (dose: 25.0 mg/kg/injection, schedule: Q04DX003 (ip), vehicle: saline with Tween-80): 113 % of control
- T/C (dose: 50.0 mg/kg/injection, schedule: Q01DX009 (ip), vehicle: Klucel (hydroxypropylcellulose) (HPC)): 111 % of control

SMILES: CNS(=O)Nc1ccnc(=O)[nH]1 (stereo unspecified)
- T/C (dose: 50.0 mg/kg/injection, schedule: Q04DX002 (ip), vehicle: Klucel (hydroxypropylcellulose) (HPC)): 99 % of control
- T/C (dose: 100.0 mg/kg/injection, schedule: Q04DX002 (ip), vehicle: Klucel (hydroxypropylcellulose) (HPC)): 100 % of control
- T/C (dose: 200.0 mg/kg/injection, schedule: Q04DX002 (ip), vehicle: Klucel (hydroxypropylcellulose) (HPC)): 106 % of control
- T/C (dose: 400.0 mg/kg/injection, schedule: Q04DX002 (ip), vehicle: Klucel (hydroxypropylcellulose) (HPC)): 100 % of control

SMILES: CC1(C)N=C(N)N=C(N)N1c1ccc(CN)cc1
- T/C [6]: 110 % of control
- T/C [7]: 103 % of control
- T/C [8]: 106 % of control

SMILES: Cc1cc2nc(CN(CCO)CCO)[nH]c2cc1C
- T/C (dose: 50.0 mg/kg/injection, schedule: Q01DX005 (ip), vehicle: saline): 100 % of control
- T/C (dose: 100.0 mg/kg/injection, schedule: Q01DX005 (ip), vehicle: saline): 98 % of control
- T/C (dose: 200.0 mg/kg/injection, schedule: Q01DX005 (ip), vehicle: saline): 98 % of control

SMILES: CCCCCC(O)CC(O)CC(=O)CCCC(=O)CC(O)CC(=O)CCCCCC(O)CC(O)CC(=O)CCCC(=O)CC(O)CC(=O)CCCC(C)=O (stereo unspecified) (tested in a mixture with another compound)
- T/C (dose: 0.62 mg/kg/injection, schedule: Q01DX005 (ip), vehicle: DMSO): 91 % of control
- T/C (dose: 1.25 mg/kg/injection, schedule: Q01DX005 (ip), vehicle: DMSO): 91 % of control
- T/C (dose: 2.5 mg/kg/injection, schedule: Q01DX005 (ip), vehicle: DMSO): 90 % of control
- T/C (dose: 5.0 mg/kg/injection, schedule: Q01DX005 (ip), vehicle: DMSO): 92 % of control
- T/C (dose: 10.0 mg/kg/injection, schedule: Q01DX005 (ip), vehicle: DMSO): 100 % of control
- T/C (dose: 20.0 mg/kg/injection, schedule: Q01DX005 (ip), vehicle: DMSO): 93 % of control

SMILES: Nc1nc[nH]c1-c1noc(=O)[nH]1
- T/C (dose: 12.5 mg/kg/injection, schedule: Q01DX009 (ip), vehicle: saline): 102 % of control
- T/C (dose: 25.0 mg/kg/injection, schedule: Q01DX009 (ip), vehicle: saline): 108 % of control
- T/C (dose: 50.0 mg/kg/injection, schedule: Q01DX009 (ip), vehicle: saline): 104 % of control and 112 % of control
- T/C (dose: 100.0 mg/kg/injection, schedule: Q01DX009 (ip), vehicle: saline): 110 % of control

SMILES: COc1ccc(/C=C/Cc2cc3c(cc2OC)OCO3)cc1
- T/C [1]: 104 % of control
- T/C [2]: 93 % of control
- T/C [3]: 90 % of control

SMILES: CCCCCCCCCCCCCCCCCC(=O)NC(Cc1ccc(N(CCCl)CCCl)cc1)C(=O)O (stereo unspecified)
- T/C (dose: 1.88 mg/kg/injection, schedule: Q01DX009 (ip), vehicle: saline): 159 % of control
- T/C (dose: 3.75 mg/kg/injection, schedule: Q01DX009 (ip), vehicle: saline): 172 % of control
- T/C (dose: 3.75 mg/kg/injection, schedule: Q03HX008 (ip), vehicle: saline): 155 % of control
- T/C (dose: 7.5 mg/kg/injection, schedule: Q01DX009 (ip), vehicle: saline): 236 % of control
- T/C (dose: 7.5 mg/kg/injection, schedule: Q03HX008 (ip), vehicle: saline): 190 % of control
- T/C (dose: 15.0 mg/kg/injection, schedule: Q01DX009 (ip), vehicle: saline): 277 % of control
- T/C (dose: 15.0 mg/kg/injection, schedule: Q03HX008 (ip), vehicle: saline): 225 % of control

Reference: PubChem BioAssay AID330 (DTP/NCI, 2004)
